The data set can be described thus: Human HepG2 cell viability assay in 384 well format. To be noted: HepG2 cells, read-out: Inhibition. In kind it is toxicity, cell-based. More on the design: dose 125 nL, time 70.5 hour; concentration not given beside the values.
Turning to `CC(NC(=O)Nc1cccnc1N1CCCC1)c1ccccn1` (centres undefined), the cytotoxicity at 70.5 h is -17.8%. In the case of `c1cnc(N2CCN(CCn3ccnc3-c3ccncc3)CC2)nc1` it was 12.5%; in that of `Cc1cccc(-c2nc(N)nc3c2CN(C(=O)c2ccncn2)C3C)c1` (centres undefined), -18.2%. For `COc1c(CNCc2ccccc2CN2CCOCC2)c(C)nn1C` the value was -7.68%; for `O=C(Cc1ccccn1)N1C[C@@H](Oc2cccnc2)[C@H]2OCCC[C@H]21`, 28.2%; for `Cc1cnc(N2CCCC(c3ccccc3)C2)nc1-c1ncnn1C` (centres undefined), -9.97%. In the case of `Cc1nc(CN(C)C2CCN(Cc3nc4ccccc4s3)C2)no1` (centres undefined) it was -8.96%; in that of `Oc1cc(CNCCCN2CCCC2)nc2ccc(F)cc12`, 12.5%.

Consider `CN1CCN(C(=O)c2cncc(CC3CCCN(C)C3)c2)CC1` (centres undefined), for which the cytotoxicity at 70.5 h came out at 24.9%. For `CCOc1ncccc1NC(=O)NC1CCN(S(C)(=O)=O)CC1` the value was 20.6%; for `COCCN(C)c1ccc(NCc2cccnc2)nc1`, 5.65%. For `COCc1nc(C2CC2)nn1-c1cccc(F)c1` the value was -7.42%; for `CCOC1CCC2(CCN(C(=O)c3c[nH]cn3)CC2)c2ccccc21` (centres undefined), -6.3%. In the case of `CCC1CN(CC(=O)NC(C)C)CCO1` (centres undefined) it was -10.4%. Turning to `Cc1ccc(S(C)(=O)=O)cc1C(=O)N1CCCC(n2cncn2)C1` (centres undefined), the cytotoxicity at 70.5 h is -3.44%. In the case of `CN(CC(=O)NCC(F)(F)F)Cc1cccc2c1OCCO2` it was 14.8%; in that of `CCN1CCCC(c2nc(O)c3cc(C)ccc3n2)C1` (centres undefined), -8.23%; in that of `CCc1ncc(C(=O)N2CCCN(C3CCCC3)CC2)cn1`, -14.6%. For `Cc1cccc(C(=O)N2CCn3cnc(COCC4CC4)c3C2)c1` the value was -5.71%.

Regarding `CCc1nc(C)cc(N2CCN(C(=O)[C@@H]3C[C@@H]4C=C[C@H]3C4)CC2)n1`, the cytotoxicity at 70.5 h was -7.28%.

In the case of `COC(=O)c1ccc(NC(=O)NC2CCc3[nH]ncc3C2)cc1` (centres undefined), the cytotoxicity at 70.5 h amounted to 1.54%. In the case of `c1ccc2sc(N3CCN(c4ncnc5c4CCC5)CC3)nc2c1` it was 13.8%; in that of `Cc1nnc(C(C)Nc2ccc(OCCc3ccccc3)nc2)o1` (centres undefined), 0.291%.

Consider `Cc1nc2ccccc2nc1CN1CCCC1c1c(C)nn(C)c1C` (centres undefined), for which the cytotoxicity at 70.5 h is -4.26%. In the case of `Cn1cnc(S(=O)(=O)N2CCCn3cnc(CN4CCCC4)c3C2)c1` it was -3.74%; in that of `C[S+](C)[c-]1c(=O)[nH]c(=O)n(CCc2ccc(F)cc2)c1=O`, -2.07%; in that of `CCS(=O)(=O)N1CCC2(CN(Cc3ccc(C)o3)C2)C1`, -13.4%.

On to `CCOc1ccc(CN2CCC(c3ccn[nH]3)C2)cc1CO` (centres undefined), for which the cytotoxicity at 70.5 h came out at 3.78%. In the case of `COCCn1ccc2ccc(C(=O)N3CCN(C(C)=O)CC3)cc21` it was -13.7%; in that of `NC(=O)C1(CCCc2ccccn2)CCCN(Cc2ccncc2)C1` (centres undefined), -2.02%.

Take `COc1ccc(CC(=O)N2CCN(Cc3ccco3)C[C@@H]2C)cc1`: the cytotoxicity at 70.5 h was -7.32%. As for `NC(=O)N1CCC2(CCN(Cc3ccccn3)C2=O)C1` (centres undefined), the cytotoxicity at 70.5 h is -0.213%. In the case of `CCCNC(=O)c1nn(CC)cc1Cl` it was -3.27%.

On to `Cc1nc(CN2CCN(C(=O)c3ccn(C)c(=O)c3)CC2)cs1`, for which the cytotoxicity at 70.5 h was determined as 7.44%. For `CCOc1cc(CNC(=O)NC2CC=CC2)ccc1OC(F)F` the value was -5.65%; for `Cc1nn(C)cc1NC(=O)CC1CCN(C(=O)Cc2ccccc2)CC1`, -4.98%; for `CC(C)NC(=O)c1nnn(-c2ccc(F)cc2)c1C1CC1`, -4.05%. In the case of `O=C1C[C@@H]2[C@H](CCN2Cc2ccccn2)N1Cc1ccncc1` it was -4.28%; in that of `CN(C)c1cc(C(=O)NCCc2n[nH]c(=O)[nH]2)ccn1`, -5.07%; in that of `Cc1cc(C)c(C(=O)NC2CCN(c3ncccc3C#N)CC2)c(=O)[nH]1`, -11.1%. On to `CN(CCN1CCCC1=O)CC(c1cccs1)N1CCOCC1` (centres undefined), for which the cytotoxicity at 70.5 h was -11.7%. In the case of `CC(C(=O)NCc1ccnc(N(C)C)c1)n1cccn1` (centres undefined) it was -3.71%.

Consider `COc1cc(N2CCC[C@]3(C(=O)O)CN(C(C)C)C[C@@H]3C2)ncn1`, for which the cytotoxicity at 70.5 h was -3.84%. For the compound `CNc1[nH]nc(N)c1NC(=O)c1ccccc1`, the cytotoxicity at 70.5 h was -17.7%. `Cc1cc(N2CCCC2c2cncc(N(C)C)n2)ncn1` (centres undefined): the cytotoxicity at 70.5 h came out at 1.3%. Regarding `Cn1c(Cn2ccnc2)nnc1C1CCN(Cc2cccnc2N)CC1`, the cytotoxicity at 70.5 h was -9.06%. In the case of `Cc1ccc(OC2(C(=O)NC(C)Cc3ccncc3)CCNCC2)cc1` (centres undefined) it was -6.8%. In the case of `c1csc(CN2Cc3nc(CN4CCCC4)oc3C2)c1` it was -1.36%; in that of `COc1cccc(OCC(=O)NS(=O)(=O)c2ccc(Br)s2)c1`, 0.256%; in that of `CCn1cc(CNc2ccc3nccnc3c2)cn1`, 7.17%. With `Cc1ccc(CN(C)C(=O)NCC(C)(C)S(C)(=O)=O)s1`, the cytotoxicity at 70.5 h is -2.7%. As for `COc1ccc(CN(C)CC(O)COCc2ccccc2Cl)c(OC)c1` (centres undefined), the cytotoxicity at 70.5 h was 16.2%. For `CCOc1nnc(CNC2CCCN(c3ccc(C)nn3)C2)s1` (centres undefined) the value was -1.05%; for `Cc1cccc2[nH]c(C3CCCN(Cc4ccccc4C(=O)O)C3)nc12` (centres undefined), 8.18%; for `Cc1ccc(C(=O)NCc2ccc(N3CCNC(=O)C3)c(F)c2)cc1`, -0.234%. For `CCC1CN(CCCO)c2ccccc2O1` (centres undefined) the value was 0.738%; for `Cc1ccsc1-c1nc(CN(C)Cc2noc(C(C)C)n2)c(C)o1`, -10.3%.

With `CN(Cc1n[nH]c2c1CCCC2)c1cc(N2CCOCC2)nc(N)n1`, the cytotoxicity at 70.5 h was -8.11%. As for `CCOC(=O)[C@]12CCCN(Cc3ccco3)C[C@H]1CN(CCN(C)C)C2`, the cytotoxicity at 70.5 h is -8.65%. In the case of `Cc1ccnc(OC[C@]23COC[C@H]2CN(C(=O)C2=CCCCC2)C3)n1`, the cytotoxicity at 70.5 h is -11.5%. For `O=C(c1cccc(F)c1)N1CCOC(c2nc(-c3ncccn3)no2)C1` (centres undefined) the value was -5.4%; for `O=C(CCN1CCOC1=O)Nc1cnn(-c2ccccc2Cl)c1`, -7.73%. In the case of `Cc1nn(C)c(N2CCOCC2)c1CNCc1ccc(C(C)O)cc1` (centres undefined) it was -11.7%; in that of `COc1ccccc1C(=O)N1CCCC1Cn1cc(C)cn1` (centres undefined), -14.4%; in that of `Cc1ccsc1-c1cc(C(=O)O)cc(S(=O)(=O)NCc2ccccn2)c1`, -9.5%. For the compound `CS(=O)(=O)CCN1CCc2c(ncn2C2CC2)C1`, the cytotoxicity at 70.5 h was -3.42%. In the case of `O=C1COC2(CCN(Cc3ccoc3)CC2)CN1c1ccsc1` it was -15.9%; in that of `CO[C@@H]1CCN(Cc2cnn(C)c2)[C@@H]2CN(Cc3ccco3)C[C@@H]21`, -13.3%.

For `Cc1cc(C)c2cc(CNCc3ccccc3)c3nn(C)c(=O)n3c2c1`, the cytotoxicity at 70.5 h amounted to 3.71%. As for `Cc1ncc2c(n1)C1(CCN(C(=O)C(C)C)CC1)OCC2`, the cytotoxicity at 70.5 h was -6.13%. In the case of `Cn1cc(-c2nc(CN3CCCCC3Cn3cncn3)cs2)cn1` (centres undefined) it was 19.3%; in that of `COCCNC(=O)c1cc(OC)ccc1Br`, 0.394%.

Take `Cc1nccnc1N1CCC2(CCCN(C3CCOCC3)C2=O)C1` (centres undefined): the cytotoxicity at 70.5 h was 7.43%. For `COc1ccc(-c2ncc(-c3nccn3CCN(C)C)cn2)cc1` the value was -10.5%; for `c1ccc(-c2nnc(CNC3CCCN(c4cccnn4)C3)o2)cc1` (centres undefined), -16.9%; for `O=C(COc1ccccc1N1CCCC1)N1CCN[C@H]2CS(=O)(=O)C[C@H]21`, -7.17%. Take `Cc1ccc(CNc2ccccc2-n2ccc(C)n2)nc1`: the cytotoxicity at 70.5 h was 8.61%.

For the compound `c1cnc(N2CCN(Cn3nccc3-c3cccnc3)CC2)nc1`, the cytotoxicity at 70.5 h turned out to be 5.37%.

With `CN(C)Cc1ccccc1CN(C)c1ncnc2[nH]ccc12`, the cytotoxicity at 70.5 h was -9.22%. In the case of `CCc1nnc(Nc2cccc(C3CCN(c4cnccn4)CC3)n2)s1` it was 14.7%; in that of `CC(=O)N1CCc2nc3sc(C(N)=O)c(N)c3c(C(F)(F)F)c2C1`, 6.92%.

Consider `CCCc1ccc(C(=O)N2CCn3c(nnc3C(C)C)C2)cc1`, for which the cytotoxicity at 70.5 h is -5.86%. In the case of `CN(CC(N)=O)S(=O)(=O)c1ccc(F)cc1F` it was -7.55%; in that of `COc1ccc2nc(O)c(CN(C)Cc3ncc[nH]3)cc2c1`, 1.48%; in that of `CN1C(=O)CC(c2cnn(C)c2)C12CCN(C(=O)c1cccn1C)CC2` (centres undefined), -13.1%. For `CC(=O)NCCNC(=O)c1cnc2c(c1)nc(-c1ccccc1Cl)n2C` the value was -6%; for `COc1ccc2c(c1OC)Cc1c-2nc(N)c(C#N)c1C1CCOC1` (centres undefined), -19.2%. For `NC(=O)C1(CCCc2ccccn2)CCCN(Cc2ncc[nH]2)C1` (centres undefined) the value was 1.81%. As for `CN(C)CCO[C@H]1CN(Cc2ccco2)[C@@H]2COC[C@H]12`, the cytotoxicity at 70.5 h is -3.7%. For `Cc1ccsc1CN1C[C@@H]2COC[C@]2(CNC(=O)c2ccco2)C1` the value was -6.31%; for `c1cc(CN2CCCC(c3noc(C4CC4)n3)C2)no1` (centres undefined), 3.46%. For `Cc1ccc(S(=O)(=O)NC(=O)CCC2CCCO2)cc1` (centres undefined) the value was 0.693%; for `COc1cccc2c1N(CC(=O)Nc1ccc(Cl)cn1)CCC2`, 0.717%. In the case of `CC(C)N1CCC(c2nccnc2Nc2cnccn2)CC1` it was 17.9%; in that of `CN1CCC2(CCN(c3ncc(F)cn3)CC2)C1=O`, -1.11%. On to `O=C(C1CCC1)N1CCCC(c2cccc(-n3ccnc3)n2)C1` (centres undefined), for which the cytotoxicity at 70.5 h is -6.13%. For `Cc1cccc(N2Cc3nc(N4CCC(C)CC4)ncc3C2=O)c1` the value was -5.12%; for `Cc1ccc(C(=O)N2CCC(C(F)(F)F)CC2)cc1N1CCNC1=O`, 4.91%; for `OCCOc1ccc(NCc2cc(F)cc3cccnc23)cn1`, -9.9%.

(Values after ChEMBL document CHEMBL3507680, “University of Dundee, Gates Library screen for HepG2 cell viability”.)
